US20260308158A1, “TARGETING RNAS ASSOCIATED WITH TAUOPATHIES WITH SMALL MOLECULES” (University of Florida Research Foundation, Incorporated, priority 2023, published 2026)

Key:
WT I17T mutant RNA = assay: Fluorescent binding affinity, WT I17T mutant RNA
Protocol: (§1) Fluorescent Binding Affinity Measurements. Binding assays were completed as previously described.^30 Briefly, the RNA of interest was folded in 1× Assay Buffer-1 (AB1: 8 mM Na2HPO4, pH 7.0, 185 mM NaCl, and 1 mM EDTA) by heating at 95° C. for 30 s followed by slowly cooling to room temperature. Bovine serum albumin (BSA) was then added to a final concentration of 40 μg/mL to afford 1× Assay Buffer-2 (AB2: 8 mM Na2HPO4, pH 7.0, 185 mM NaCl, 1 mM EDTA, and 40 μg/mL BSA). The RNA solution was serial diluted with 1×AB2. Then, compound of interest was added to the RNA solutions to a final concentration of 0.5 μM. […] Fluorescence intensity was measured using a Tecan Plate Reader (Gain: 100, Integration time: 40 μs). […] The change in fluorescence of the small molecule was calculated by its comparison to samples lacking RNA. Binding affinity was calculated using Equation 1, as previously described:^30
(§2) where I and I0 are the measured fluorescence intensity of the compound with or without RNA, respectively, Δε is the difference between the fluorescence intensity with the infinite concentration of RNA and the fluorescence intensity without RNA, [SM]0 and [RNA]0 are the concentrations of the small molecule (SM) and RNA, respectively, and Kd is the dissociation constant.

[1] = Body weight / tolerability, htau mice; type: in vivo, htau mouse; details: 100 mg/kg p.o. q.o.d., 20 days
Description: hTau Mice Studies. htau mice and WT mice (C57BL/6J) were purchased from Jackson Laboratories. htau mice were maintained in-house through breeding between htau+/− mice. Genotype was confirmed by PCR amplification as previously described.^18 Only homozygous mice were used in in vivo studies. Mice were randomly assigned to a treatment group, which were age- and gender-matched (n=X). In these studies, mice were >9 months of age since cognitive and physiological impairments in htau mice was age-dependent and were not presented in young mice (<4 months) with early-stage tau pathology.^42 Mice were orally administered vehicle (5/5/90 DMSO/Tween-80/H2O) or 100 mg/kg of 2 in the same formulation every other day (q.o.d.). During the treatment period, nesting activity was assessed, as describe in Nesting Activity below. After 20 days, the mice were euthanized (in accordance with guidelines provided by the American Veterinarian Medical Association), and the brain was harvested for analysis. One hemisphere of the brain was frozen at −80° C. for RT-qPCR analyses while the other was used for histological studies.

7-deaza-guanosine WT RNA = assay: Fluorescent binding affinity, 7-deaza-guanosine WT RNA; details: n=3, read-out: Kd (affinity for the modified RNA)
Protocol: as §1, §2

htau mice = assay: Nesting activity, htau mice; type: in vivo, htau mouse; details: scale 1-5, 100 mg/kg p.o. q.o.d.
Protocol: Nesting Activity. From Day 1 to Day 20, mice were individually housed and nesting material from the previous day was removed. An intact 3.0 g nestlet was placed within each cage. Around 15 h later, the resulting nest was photographed for qualitative scoring, and the untorn nestlet was weighed if present. All nest images and weights were analyzed by a blinded individual and based on published criteria.^43 In brief, nesting is scored on a rating scale of 1-5 where if the nestlet is over 90% intact, it is given a nestlet score is 1 (Poor; FIG. 4C). When the nestlet is partially torn but >50% remains, the nestlet score is 2; a score of 3 is assigned when 50-90% of the nestlet is torn but spread around the cage and no identifiable nest site is found (Medium; FIG. 4C). When more than 90% of the nestlet is torn and the nest is identifiable but flat, the nestlet score is 4. When a near perfect nest is built and the wall is higher than the mouse's body, it is assigned a nestlet score of 5 (Good; FIG. 4C).

[2] = test system: phosphorylated tau / NeuN positive neurons in cortex; assay: Brain immunohistochemistry in htau mice (AT8, NeuN); type: in vivo, htau mouse; details: 100 mg/kg p.o. q.o.d.
Protocol: Brain Tissue Histology. Left brain hemispheres of htau mice were harvested for total RNA. Right brain hemispheres (unfrozen) of htau mice were stored in 10% neutral buffered formalin (VWR) for 48 h. Tissue processing, embedding, and sectioning were performed and generated by the Scripps Florida Histology Core. Briefly, tissue was embedded in paraffin using a Sakura Tissue-Tek VIP5 paraffin processor, sectioned at 4 μm, and then mounted on positively charged slides for further immunostaining. The slides were stained on a Leica BondMax Immunostaining platform with the following primary antibodies: AT8 (MN1020, Invitrogen; 1:100 dilution) and NeuN (MAB377B, Chemicon; 1:500 dilution). After the slides were washed three times with 1×DPBS, a DAB Substrate Kit (Vector Laboratories, Inc.) was used to detect the primary antibodies per the manufacturer's protocol. After staining was complete, the slides were dehydrated, cover-slipped with Cytoseal 60 (Thermo Scientific), and imaged with a Leica DMI3000 B upright fluorescent microscope using 20× or 60× objective. Quantification was performed in a blinded fashion using ImageJ in which positivity was identified as aggregates (purple staining of AT8 or brown staining of NeuN) with diameter over 20 μm and staining signal over 185 that were kept constant across all treatment groups.

SMILES: COc1cc(N)ncc1CCCN(C)CCCn1cnc2c3ccccc3n(C)c2c1=O [Compound 2, 3-(3-((3-(6-amino-4-methoxypyridin-3-yl)propyl)(methyl)amino)propyl)-5-methyl-3,5-dihydro-4H-pyrimido[5,4-b]indol-4-one]
- Kd (estimated; no saturable binding) (WT I17T mutant RNA): > 50 µM
- change in weight [1]: no change in the weight
- tolerability [1]: well tolerated
- Kd (7-deaza-guanosine WT RNA): 3.4 ± 0.9 µM
- nesting score at Day 2 (htau mice): 2.6±1.1
- nesting score at Day 20 (htau mice): 4.5±0.4
- AT8 antibody immunoreactivity (phosphorylated tau) [2]: reduced antibody immunoreactivity throughout the cortex
- NeuN (neuron viability) [2]: enhanced
